± gives the expanded uncertainty stated by the source.
Assay: xn = mol fraction of the nth substance listed
Conditions: for mass density: Liquid, Vibrating tube method; for surface tension liquid-gas: Pendant drop shape

NCCO [2-aminoethan-1-ol] + O
mass density [kg/m3]
Conditions	x1 = 0.1122	x1 = 0.1643	x1 = 0.2278	x1 = 0.3067	x1 = 0.4077	x1 = 0.5412	x1 = 0.7264	x1 = 1
298.15 K, 101 kPa	1010.9 ± 0.7	1016.3 ± 0.7	1021.3 ± 0.7	1024.8 ± 0.7	1026.3 ± 0.7	1024.7 ± 0.7	1020 ± 0.7	1011.9 ± 0.7
303.15 K, 101 kPa	1008.4 ± 0.7	1013.8 ± 0.7	1018.2 ± 0.7	1021.4 ± 0.7	1022.8 ± 0.7	1021 ± 0.7	1016.2 ± 0.7	1008 ± 0.7
308.15 K, 101 kPa	1006.2 ± 0.7	1011 ± 0.7	1015.2 ± 0.7	1018.2 ± 0.7	1019.3 ± 0.7	1017.3 ± 0.7	1012.3 ± 0.7	1004 ± 0.7
313.15 K, 101 kPa	1003.5 ± 0.7	1008.3 ± 0.7	1012.1 ± 0.7	1014.7 ± 0.7	1015.7 ± 0.7	1013.5 ± 0.7	1008.5 ± 0.7	1000 ± 0.7
318.15 K, 101 kPa	1001.1 ± 0.7	1005.3 ± 0.7	1009 ± 0.7	1011.4 ± 0.7	1012 ± 0.7	1009.7 ± 0.7	1004.5 ± 0.7	996 ± 0.7
323.15 K, 101 kPa	998.1 ± 0.7	1002.3 ± 0.7	1005.6 ± 0.7	1007.8 ± 0.7	1008.3 ± 0.7	1005.9 ± 0.7	1000.6 ± 0.7	992 ± 0.7
328.15 K, 101 kPa	995.5 ± 0.7	999.2 ± 0.7	1002.4 ± 0.7	1004.4 ± 0.7	1004.6 ± 0.7	1002 ± 0.7	996.7 ± 0.7	988 ± 0.7
333.15 K, 101 kPa	992.3 ± 0.7	996.1 ± 0.7	999 ± 0.7	1000.7 ± 0.7	1000.8 ± 0.7	998.2 ± 0.7	992.7 ± 0.7	983.9 ± 0.7
338.15 K, 101 kPa	989.5 ± 0.7	992.7 ± 0.7	995.4 ± 0.7	997.1 ± 0.7	997 ± 0.7	994.2 ± 0.7	988.7 ± 0.7	979.8 ± 0.7
343.15 K, 101 kPa	986.1 ± 0.7	989.4 ± 0.7	991.9 ± 0.7	993.2 ± 0.7	993.1 ± 0.7	990.2 ± 0.7	984.6 ± 0.7	975.8 ± 0.7
348.15 K, 101 kPa	983 ± 0.7	985.9 ± 0.7	988.3 ± 0.7	989.5 ± 0.7	989.2 ± 0.7	986.2 ± 0.7	980.6 ± 0.7	971.6 ± 0.7
353.15 K, 101 kPa	979.4 ± 0.7	982.4 ± 0.7	984.5 ± 0.7	985.6 ± 0.7	985.2 ± 0.7	982.1 ± 0.7	976.5 ± 0.7	967.5 ± 0.7
358.15 K, 101 kPa	976.1 ± 0.7	978.7 ± 0.7	980.8 ± 0.7	981.8 ± 0.7	981.2 ± 0.7	978 ± 0.7	972.3 ± 0.7	963.4 ± 0.7
363.15 K, 101 kPa	972.5 ± 0.7	975 ± 0.7	976.9 ± 0.7	977.7 ± 0.7	977.1 ± 0.7	973.9 ± 0.7	968.1 ± 0.7	959.2 ± 0.7
373.1 K, 700 kPa	965.3 ± 0.7	967.2 ± 0.7	969 ± 0.7	969.4 ± 0.7	968.5 ± 0.7	965.3 ± 0.7	959.3 ± 0.7	950.9 ± 0.7
383.15 K, 700 kPa	957.4 ± 0.7	959.1 ± 0.7	960.6 ± 0.7	960.8 ± 0.7	959.8 ± 0.7	956.5 ± 0.7	950.6 ± 0.7	942.3 ± 0.7
393.15 K, 700 kPa	949.1 ± 0.7	950.7 ± 0.7	952 ± 0.7	952.1 ± 0.7	950.9 ± 0.7	947.6 ± 0.7	941.7 ± 0.7	933.5 ± 0.7
403.15 K, 700 kPa	940.6 ± 0.7	941.9 ± 0.7	943.1 ± 0.7	943.1 ± 0.7	941.9 ± 0.7	938.6 ± 0.7	932.7 ± 0.7	924.7 ± 0.7
413.15 K, 700 kPa	931.7 ± 0.7	932.9 ± 0.7	934 ± 0.7	933.8 ± 0.7	932.6 ± 0.7	929.3 ± 0.7	923.6 ± 0.7	915.7 ± 0.7
423.15 K, 700 kPa	922.3 ± 0.7	923.3 ± 0.7	924.3 ± 0.7	924.1 ± 0.7	922.8 ± 0.7	919.5 ± 0.7	914.1 ± 0.7	906.4 ± 0.7

surface tension liquid-gas [mN/m]
Conditions	x1 = 0.032	x1 = 0.069	x1 = 0.112	x1 = 0.164	x1 = 0.228	x1 = 0.307	x1 = 0.407	x1 = 0.541	x1 = 0.726	x1 = 1
303.15 K	66.75 ± 0.74	64.74 ± 0.72	63.58 ± 0.72	61.74 ± 0.71	59.27 ± 0.69	57.42 ± 0.68	55.78 ± 0.67	53.43 ± 0.66	50.59 ± 0.65	48.13 ± 0.63
313.15 K	65.51 ± 0.73	63.29 ± 0.72	62.55 ± 0.71	60.27 ± 0.7	58.19 ± 0.69	56.35 ± 0.68	54.82 ± 0.67	52.41 ± 0.66	49.63 ± 0.64	46.66 ± 0.63
323.15 K	64.31 ± 0.72	61.72 ± 0.71	61.16 ± 0.7	58.82 ± 0.69	56.85 ± 0.68	55.15 ± 0.67	53.4 ± 0.66	51.14 ± 0.65	48.42 ± 0.64	45.58 ± 0.62
333.15 K	62.46 ± 0.71	60.07 ± 0.7	59.39 ± 0.69	57.29 ± 0.68	55.39 ± 0.67	53.61 ± 0.66	51.77 ± 0.65	49.62 ± 0.64	47 ± 0.63	44.63 ± 0.62
